Assay [1] concerns senescent progeric fibroblasts (cell passage 17). Description: mitochondrial membrane potential (JC-1) by flow cytometry. Format: cell-based, human. Particulars: vs control, p<0.05, FIG. 20. How it is done: Progeric fibroblasts (Hutchinson-Gilford Progeria Syndrome Skin Fibroblasts, Coriell Cell Repositories, AG03198 B) were cultured in Dulbecco's Modified Eagle's Media (DMEM) supplemented with 10% fetal bovine serpm (FBS) and 100 unit/ml of penicillin, and 100 μg/ml of streptomycin (two antibiotics are purchased from Gibro-BRL and Grand Island, N.Y.) in a 5% CO2 incubator at 37° C. Subculturing was initiated when the cells were approximately 85% confluent in plates. Early subcultures were performed at a split ratio of 1:4, and later subcultures were performed at a split ratio of 1:2. When cell doubling time was 14 days, the cells were regarded as senescent progeric fibroblasts (cell passages 16 to 17).
The senescent progeric fibroblasts (cell passage 17) were seeded on each well of a 6-well plate in a concentration of 2,000 cells/well and cultured in the presence of 5 μM of Y-27632, 5 μM of FASUDIL, and 0.5 μM of SR3677 for 4 weeks in a 5% CO2 incubator at 37° C. The culture media were changed at every 4 days with new culture media supplemented with 5 μM of Y-27632, 5 μM of FASUDIL, and 0.5 μM of SR3677. A negative control group was prepared in the same manner, except that 0.05 (v/v) % of DMSO was used.
Mitochondrial membrane potentials were measured using a MitoProbe™ JC-1 Assay kit for Flow Cytometry (Life technologies, T3168) according to manufacturer's manuals. JC-1 is accumulated in mitochondria in a potential-dependent manner, and this accumulation is identified by fluorescence emission shift from green (about 529 nm) to red (about 590 nm). As a result, mitochondrial depolarization is identified by a decrease in a red/green fluorescence ratio. The mitochondrial membrane potentials were measured by excitation at 488 nm using a FACSCaliber (Beckton Dickinson) and using a flow cytometer by using 530/30 nm and 585/42 nm band pass filters. The results were analyzed using Cell Quest 3.2 software (Beckton Dickinson). FIG. 20 is a graph displaying action potentials of mitochondria. […] In FIG. 20, * indicates statistically significant (p<0.05). […]
(In flow cytometry, cells or beads pass a laser one at a time.)

Assay [2] deals with senescent fibroblasts (after 37 cell passages). Described as above. In kind it is cell-based, human. The following applies: vs control, p<0.05, FIG. 11. How it is done: Mitochondrial membrane potentials were measured using a MitoProbe™ JC-1 Assay kit for Flow Cytometry (Life technologies, T3168) according to manufacturer's manuals. JC-1 is accumulated in mitochondria in a potential-dependent manner, and this accumulation is identified by fluorescence emission shift from green (about 529 nm) to red (about 590 nm). As a result, mitochondrial depolarization is identified by a decrease in a red/green fluorescence ratio. The mitochondrial membrane potentials were measured by excitation at 488 nm using a FACSCaliber (Beckton Dickinson) and using a flow cytometer by using 530/30 nm and 585/42 nm band pass filters. The results were analyzed using Cell Quest 3.2 software (Beckton Dickinson). FIG. 11 is a graph displaying action potentials of mitochondria. […] In FIG. 11, * indicates statistically significant (p<0.05). In FIG. 11, the vertical axis is mitochondrial membrane potential. “MMP” refers to mitochondria membrane potential.

The test system of assay [3] is senescent myoblasts (11 cell passages). As to the kind of experiment: mitochondrial ROS (MitoSOX) by flow cytometry. In kind it is cell-based, Human. Particulars: vs control, p<0.05, FIG. 15. Here is the method: Myoblast cell lines (Human Skeletal Muscle Myoblasts, Lonza CC-2580 LOT:0000387550) were cultured in SkBM™-2 Basal Media (Lonza CC-3246) including an SkGM™-2 SingleQuots™ Kit (Lonza CC-3244) on plates coated with Collagen Type I (Greiner Bio One, 658950) in a 5% CO2 incubator at 37° C. Subculture was initiated when the cells were approximately 85% confluent in plates. Early subcultures were performed at a split ratio of 1:4, and later subcultures were performed at a split ratio of 1:2. When cell doubling time was 14 days, the cells were regarded as senescent myoblasts (cell passages 10 to 12).
Senescent cells were seeded on each well of a 6-well plate coated with Collagen Type I (Greiner Bio One, 657950) in a concentration of 2,000 cells/well. Senescent myoblasts (passage 11) were cultured in the presence of 5 μM of Y-27632, 5 μM of FASUDIL, and 0.5 μM of SR3677 for 4 weeks in a 5% CO2 incubator at 37° C. The culture media were changed at every 4 days with new culture media supplemented with 5 μM of Y-27632, 5 μM of FASUDIL, and 0.5 μM of SR3677. A negative control group was prepared in the same manner, except that 0.05 (v/v) % of DMSO was used.
ROS were measured using a 0.2 μM MitoSOX (Invitrogen, M3608) according to manufacturer's manuals. Light having a wavelength of 520 nm was irradiated to the cells using a FACSCaliber (Beckton Dickinson), and light emission was measured at 580 nm. The results were analyzed using Cell Quest 3.2 software (Beckton Dickinson).

Assay [4] relates to senescent fibroblasts (after 37 cell passages). Description: mitochondrial ROS (MitoSOX) by flow cytometry. Format: cell-based, human. The following applies: vs control, p<0.05, FIG. 10. Here is the method:
In addition, damage of mitochondria was identified by measuring reactive oxygen species (ROS) and mitochondrial membrane potentials which are well known in the art. ROS were measured using a 0.2 μM MitoSOX (Invitrogen, M3608) according to manufacturer's manuals. Light having a wavelength of 520 nm was irradiated to the cells using a FACSCaliber (Beckton Dickinson), and light emission was measured at 580 nm. The results were analyzed using a Cell Quest 3.2 software (Beckton Dickinson). […] In FIG. 10, * indicates statistically significant (p<0.05).

On to `O=S(=O)(c1cccc2cnccc12)N1CCCNCC1` [FASUDIL, 5-(1,4-diazepane-1-sulfonyl)isoquinoline], for which the “action potentials of mitochondria (mitochondrial membrane potential)” value (“action potentials of mitochondria” for short) in assay [1] (5 μM) and in assay [2] (5 μM) was “significantly increased” throughout. Moreover, the ROS result in assay [3] (5 μM) and in assay [4] (5 μM) was “significantly reduced” each time.

As for `C[C@@H](N)[C@H]1CC[C@H](C(=O)Nc2ccncc2)CC1` [Y-27632, (1R,4R)-4-((R)-1-aminoethyl)-N-(pyridin-4-yl)cyclohexanecarboxamide], the “action potentials of mitochondria” value in assay [1] (5 μM) and in assay [2] (5 μM) was “significantly increased” throughout. Also, the ROS result in assay [3] (5 μM) and in assay [4] (5 μM) was “significantly reduced” throughout.

`CN(C)CCOc1cc(-c2cn[nH]c2)ccc1NC(=O)C1COc2ccccc2O1` (stereo not drawn) [SR3677]: the “action potentials of mitochondria” value in assay [1] (0.5 μM) and in assay [2] (0.5 μM) was “significantly increased” each time. The ROS result in assay [3] (0.5 μM) and in assay [4] (0.5 μM) was “significantly reduced” in each case.

Values taken from US9943525B2, “Composition for reducing cell senescence comprising Rho-kinase inhibitor and use thereof” (Samsung Electronics Co., Ltd., priority 2014, dated 2018).
